{
  "source": "patent US10745395B2",
  "about": "“Compounds for their use as drugs for the treatment and/or the prevention of infection(s) caused by biofilm-forming bacteria” (CENTRE NATIONAL DE LA RECHERCHE SCIENTIFIQUE, priority 2014, dated 2020)",
  "assay_in_all_cases": "Antibiotic susceptibility test, disk diffusion (EUCAST)",
  "assay_type_in_all_cases": "cell-based, Pseudomonas aeruginosa",
  "parameters_in_all_cases": "key: R means resistant to the antibiotic; S means sensitive to the antibiotic",
  "details_in_all_cases": "disk load given per antibiotic",
  "key": {"[1]": {"test_system": "P. aeruginosa strain PAR 20", "method": "(§1) All tests were performed on Pseudomonas aeruginosa strains coded: PAR 5, PAR 20, PAR 50, isolated from suppurated wounds of three male patients with chronic diabetic foot infections.\n(§2) Drug resistance of the P. aeruginosa strains were tested using the disk diffusion method. Interpretation of the drug resistance of the Pseudomonas aeruginosa strains was done in accordance with the EUCAST standards (see the reference below for more information): http://www.eucast.org/fileadmin/src/media/PDFs/EUCAST_files/Breakpoint tables/Breakpoint_table_v_3.1.pdf.\n(§3) To determine the drug resistance of the strains, the following antibiotics were used: amikacin, ciprofloxacin, gentamicin, piperacillin, tobramycin, ceftazidime (Oxoid, Basingstoke, UK). R means resistant to the antibiotic and S means sensitive to the antibiotic."}, "[2]": {"test_system": "P. aeruginosa strain PAR 50", "method": "as §1, §2, §3"}, "[3]": {"test_system": "P. aeruginosa strain PAR 5", "method": "as §1, §2, §3"}},
  "data": [
    {"compound": "CCN1CCN(C(=O)N[C@@H](C(=O)N[C@@H]2C(=O)N3[C@@H]2SC(C)(C)[C@@H]3C(=O)O)c2ccccc2)C(=O)C1=O", "note": "[Piperacillin]", "values": [
      {"measurement": "Antibiotic susceptibility (according to EUCAST)", "setting": "[1]", "value": "S"},
      {"measurement": "Antibiotic susceptibility (according to EUCAST)", "setting": "[2]", "value": "R"},
      {"measurement": "Antibiotic susceptibility (according to EUCAST)", "setting": "[3]", "value": "S"}
    ]},
    {"compound": "NC[C@H]1O[C@H](O[C@H]2[C@H](O)[C@@H](O[C@H]3O[C@H](CO)[C@@H](O)[C@H](N)[C@H]3O)[C@H](N)C[C@@H]2N)[C@H](N)C[C@@H]1O", "note": "[Tobramycin]", "values": [
      {"measurement": "Antibiotic susceptibility (according to EUCAST)", "setting": "[1]", "value": "S"},
      {"measurement": "Antibiotic susceptibility (according to EUCAST)", "setting": "[2]", "value": "R"},
      {"measurement": "Antibiotic susceptibility (according to EUCAST)", "setting": "[3]", "value": "S"}
    ]},
    {"compound": "CC(C)(O/N=C(\\C(=O)N[C@@H]1C(=O)N2C(C(=O)[O-])=C(C[n+]3ccccc3)CS[C@H]12)c1csc(N)n1)C(=O)O", "note": "[Ceftazidime]", "values": [
      {"measurement": "Antibiotic susceptibility (according to EUCAST)", "setting": "[1]", "value": "S"},
      {"measurement": "Antibiotic susceptibility (according to EUCAST)", "setting": "[2]", "value": "S"},
      {"measurement": "Antibiotic susceptibility (according to EUCAST)", "setting": "[3]", "value": "R"}
    ]},
    {"compound": "Gentamicin", "values": [
      {"measurement": "Antibiotic susceptibility (according to EUCAST)", "setting": "[1]", "value": "S"},
      {"measurement": "Antibiotic susceptibility (according to EUCAST)", "setting": "[2]", "value": "R"},
      {"measurement": "Antibiotic susceptibility (according to EUCAST)", "setting": "[3]", "value": "S"}
    ]},
    {"compound": "O=C(O)c1cn(C2CC2)c2cc(N3CCNCC3)c(F)cc2c1=O", "note": "[Ciprofloxacin]", "values": [
      {"measurement": "Antibiotic susceptibility (according to EUCAST)", "setting": "[1]", "value": "S"},
      {"measurement": "Antibiotic susceptibility (according to EUCAST)", "setting": "[2]", "value": "S"},
      {"measurement": "Antibiotic susceptibility (according to EUCAST)", "setting": "[3]", "value": "S"}
    ]},
    {"compound": "NCC[C@H](O)C(=O)N[C@@H]1C[C@H](N)[C@@H](O[C@H]2O[C@H](CN)[C@@H](O)[C@H](O)[C@H]2O)[C@H](O)[C@H]1O[C@H]1O[C@H](CO)[C@@H](O)[C@H](N)[C@H]1O", "note": "[Amikacin]", "values": [
      {"measurement": "Antibiotic susceptibility (according to EUCAST)", "setting": "[1]", "value": "S"},
      {"measurement": "Antibiotic susceptibility (according to EUCAST)", "setting": "[2]", "value": "R"},
      {"measurement": "Antibiotic susceptibility (according to EUCAST)", "setting": "[3]", "value": "S"}
    ]}
  ]
}
